Patent US5292733A, “Cephalosporin compounds” (Lucky Limited, priority 1991, dated 1994)
≈ marks a conversion by molar mass, not a printed value.

What was measured:
Test in all cases: Antibacterial activity MIC, two-fold agar dilution
Type in all cases: cell-based
[1] = test system: Acinetobacter calcoaceticus ATCC 15473; details: ATCC15473; Acinetobacter calcoaceticus ATCC 15473; Muller-Hinton agar, 37° C., 20 hours; read-out: Antibacterial Activity MIC
Outline: (§1)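 Inoculum: 2 μl, 10^7 CFU per ml. Medium: Muller-Hinton agar containing compound in two-fold serial dilutions. Conditions: 37° C., 20 hours; endpoint MIC.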

[2] = test system: Bacillus cereus ATCC 11778; details: ATCC11778; Bacillus cereus ATCC 11778; Muller-Hinton agar, 37° C., 20 hours; read-out: Antibacterial Activity MIC
Outline: as §1

[3] = test system: Bacillus megaterium ATCC 9885; details: Priestia megaterium, ATCC9885; Bacillus megaterium ATCC 9885; Muller-Hinton agar, 37° C., 20 hours; read-out: Antibacterial Activity MIC
Outline: as §1

[4] = test system: Citrobacter freundii ATCC 8090; details: ATCC8090; Citrobacter freundii ATCC 8090; Muller-Hinton agar, 37° C., 20 hours; read-out: Antibacterial Activity MIC
Outline: as §1

[5] = test system: Enterobacter aerogenes ATCC 29751; details: Klebsiella aerogenes, ATCC29751; Enterobacter aerogenes ATCC 29751; Muller-Hinton agar, 37° C., 20 hours; read-out: Antibacterial Activity MIC
Outline: as §1

[6] = test system: Enterobacter cloacae ATCC 27508; details: ATCC27508; Enterobacter cloacae ATCC 27508; Muller-Hinton agar, 37° C., 20 hours; read-out: Antibacterial Activity MIC
Outline: as §1

[7] = test system: Escherichia coli ATCC 10536; details: ATCC10536, Muller-Hinton agar, 37° C., 20 hours
Outline: as §1

[8] = test system: Escherichia coli ATCC 25922; details: ATCC25922, Muller-Hinton agar, 37° C., 20 hours
Outline: as §1

[9] = test system: Klebsiella pneumoniae ATCC 10031; details: ATCC10031; Klebsiella pneumoniae ATCC 10031; Muller-Hinton agar, 37° C., 20 hours; read-out: Antibacterial Activity MIC
Outline: as §1

[10] = test system: Micrococcus luteus ATCC 9341; details: ATCC9341; Micrococcus luteus ATCC 9341; Muller-Hinton agar, 37° C., 20 hours; read-out: Antibacterial Activity MIC
Outline: as §1

[11] = test system: Morganella morganii ATCC 8076h; details: ATCC8076H, Muller-Hinton agar, 37° C., 20 hours
Outline: as §1

[12] = test system: Proteus mirabilis ATCC 25933; details: ATCC25933; Proteus mirabilis ATCC 25933; Muller-Hinton agar, 37° C., 20 hours; read-out: Antibacterial Activity MIC
Outline: as §1

[13] = test system: Proteus vulgaris ATCC 6059; details: ATCC6059; Proteus vulgaris ATCC 6059; Muller-Hinton agar, 37° C., 20 hours; read-out: Antibacterial Activity MIC
Outline: as §1

[14] = test system: Providencia rettgeri ATCC 9250; details: ATCC9250, Muller-Hinton agar, 37° C., 20 hours
Outline: as §1

[15] = test system: Pseudomonas aeruginosa ATCC 10145; details: ATCC10145; Pseudomonas aeruginosa ATCC 10145; Muller-Hinton agar, 37° C., 20 hours; read-out: Antibacterial Activity MIC
Outline: as §1

[16] = test system: Pseudomonas aeruginosa ATCC 25619; details: ATCC25619; Pseudomonas aeruginosa ATCC 25619; Muller-Hinton agar, 37° C., 20 hours; read-out: Antibacterial Activity MIC
Outline: as §1

[17] = test system: Pseudomonas aeruginosa ATCC 27853; details: ATCC27853; Pseudomonas aeruginosa ATCC 27853; Muller-Hinton agar, 37° C., 20 hours; read-out: Antibacterial Activity MIC
Outline: as §1

[18] = test system: Salmonella typhimurium ATCC 14028; details: Salmonella enterica; Salmonella typhimurium ATCC 14028; Muller-Hinton agar, 37° C., 20 hours; read-out: Antibacterial Activity MIC
Outline: as §1

[19] = test system: Serratia marcescens ATCC 27117; details: ATCC27117; Serratia marcescens ATCC 27117; Muller-Hinton agar, 37° C., 20 hours; read-out: Antibacterial Activity MIC
Outline: as §1

[20] = test system: Shigella flexneri ATCC 11836; details: ATCC11836, Muller-Hinton agar, 37° C., 20 hours
Outline: as §1

[21] = test system: Shigella sonnei ATCC 11060; details: ATCC11060, Muller-Hinton agar, 37° C., 20 hours
Outline: as §1

[22] = test system: Staphylococcus aureus ATCC 10537; details: ATCC10537; Staphylococcus aureus ATCC 10537; Muller-Hinton agar, 37° C., 20 hours; read-out: Antibacterial Activity MIC
Outline: as §1

[23] = test system: Staphylococcus aureus ATCC 6538p; details: ATCC6538P; Staphylococcus aureus ATCC 6538p; Muller-Hinton agar, 37° C., 20 hours; read-out: Antibacterial Activity MIC
Outline: as §1

[24] = test system: Staphylococcus epidermidis ATCC 12228; details: ATCC12228; Staphylococcus epidermidis ATCC 12228; Muller-Hinton agar, 37° C., 20 hours; read-out: Antibacterial Activity MIC
Outline: as §1

[25] = test system: Streptococcus faecalis ATCC 29212; details: Enterococcus faecalis, ATCC29212; Streptococcus faecalis ATCC 29212; Muller-Hinton agar, 37° C., 20 hours; read-out: Antibacterial Activity MIC
Outline: as §1

CO/N=C(\C(=O)N[C@@H]1C(=O)N2C(C(=O)O)=C(COC(C)=O)CS[C@H]12)c1csc(N)n1 [Cefotaxime, reference compound]
MIC [1]: 8 µg/mL (≈ 17.6 µM)
MIC [2]: 64 µg/mL (≈ 141 µM)
MIC [3]: 0.063 µg/mL (≈ 0.138 µM)
MIC [4]: 0.063 µg/mL (≈ 0.138 µM)
MIC [5]: 2 µg/mL (≈ 4.39 µM)
MIC [6]: ≤ 0.008 µg/mL
MIC [7]: 0.031 µg/mL (≈ 0.0681 µM)
MIC [8]: 0.031 µg/mL (≈ 0.0681 µM)
MIC [9]: ≤ 0.008 µg/mL
MIC [10]: 0.031 µg/mL (≈ 0.0681 µM)
MIC [11]: ≤ 0.008 µg/mL
MIC [12]: 0.031 µg/mL (≈ 0.0681 µM)
MIC [13]: 0.031 µg/mL (≈ 0.0681 µM)
MIC [14]: ≤ 0.008 µg/mL
MIC [15]: 16 µg/mL (≈ 35.1 µM)
MIC [16]: 1 µg/mL (≈ 2.2 µM)
MIC [17]: 8 µg/mL (≈ 17.6 µM)
MIC [18]: 0.13 µg/mL (≈ 0.285 µM)
MIC [19]: 0.13 µg/mL (≈ 0.285 µM)
MIC [20]: 0.016 µg/mL (≈ 0.0351 µM)
MIC [21]: 0.063 µg/mL (≈ 0.138 µM)
MIC [22]: 1 µg/mL (≈ 2.2 µM)
MIC [23]: 4 µg/mL (≈ 8.78 µM)
MIC [24]: 1 µg/mL (≈ 2.2 µM)
MIC [25]: > 128 µg/mL

CCO/N=C(\C(=O)N[C@@H]1C(=O)N2C(C(=O)[O-])=C(CSc3cc(N)nc(N)[n+]3C)CS[C@H]12)c1nsc(N)n1 [Compound I-5, (6R,7R)-7-[(Z)-2-(5-amino-1,2,4-thiadiazol-3-yl)-2-(ethoxyimino)acetamido]-3-(2,6-diamino-3-methylpyrimidinium-4-yl)thiomethyl-3-cephem-4-carboxylate]
MIC [1]: 8 µg/mL (≈ 14.1 µM)
MIC [2]: 64 µg/mL (≈ 113 µM)
MIC [3]: 0.13 µg/mL (≈ 0.229 µM)
MIC [4]: 0.25 µg/mL (≈ 0.441 µM)
MIC [5]: 0.5 µg/mL (≈ 0.882 µM)
MIC [6]: 0.016 µg/mL (≈ 0.0282 µM)
MIC [7]: 0.13 µg/mL (≈ 0.229 µM)
MIC [8]: 0.13 µg/mL (≈ 0.229 µM)
MIC [9]: 0.016 µg/mL (≈ 0.0282 µM)
MIC [10]: 0.031 µg/mL (≈ 0.0547 µM)
MIC [11]: ≤ 0.008 µg/mL
MIC [12]: 0.061 µg/mL (≈ 0.108 µM)
MIC [13]: 0.031 µg/mL (≈ 0.0547 µM)
MIC [14]: ≤ 0.008 µg/mL
MIC [15]: 32 µg/mL (≈ 56.5 µM)
MIC [16]: 2 µg/mL (≈ 3.53 µM)
MIC [17]: 16 µg/mL (≈ 28.2 µM)
MIC [18]: 0.5 µg/mL (≈ 0.882 µM)
MIC [19]: 0.5 µg/mL (≈ 0.882 µM)
MIC [20]: 0.063 µg/mL (≈ 0.111 µM)
MIC [21]: 0.25 µg/mL (≈ 0.441 µM)
MIC [22]: 1 µg/mL (≈ 1.76 µM)
MIC [23]: 2 µg/mL (≈ 3.53 µM)
MIC [24]: 0.5 µg/mL (≈ 0.882 µM)
MIC [25]: > 128 µg/mL
